Earlier results as cited in patent US8003635B2, “Superoxide dismutase mimics for the treatment of ocular disorders and diseases” (Novartis AG, priority 2001, dated 2011).

Columns and labels:
[1] = system: light-induced retinal damage; conditions: albino rats
onset of diabetes = conditions: diabetogenic T-cell clone

CC1(C)CC(O)CC(C)(C)N1[O] [4-hydroxy-2,2,6,6-tetramethylpiperidine-1-oxyl]
light-induced retinal damage [1]: inhibited light-induced retinal damage

CCN1C=CC=C/C1=C1/C2=NC(=C(c3cccc[n+]3CC)C3=NC(=C(c4cccc[n+]4CC)c4ccc([n-]4)C(c4cccc[n+]4CC)=C4C=CC1=N4)C=C3)C=C2.[Cl-].[Cl-].[Cl-].[Cl-].[Cl-].[Mn+3] [AEOL10113]
onset of diabetes (onset of diabetes): delay the onset of diabetes

[Cl-].[Cl-].[Mn+2].c1cc2nc(c1)CN[C@@H]1CCCC[C@H]1NCCN[C@@H]1CCCC[C@H]1NC2 [M40403]
vascular and neural dysfunction (diabetic rats): prevented vascular and neural dysfunction
